In patent US20140024803A1, “18FDG MULTIMERIC POSITRON EMISSION TOMOGRAPHY IMAGING AGENTS” (priority 2012, published 2014):

Experiment: In vitro calcium salt specificity experiment (PET/CT of crystals after incubation and washing)
Assay type: binding
Settings: 5 mg/mL calcium salts (HA, phosphate, oxalate, carbonate, pyrophosphate), 10 μCi in 100 μL PBS, 20 min at RT, washed, 10 minute static PET/CT scan
Method: To determine the selectivity and specificity of ^18FDG amino-Ad-Pam-Monomer for hydroxyapatite (HA), a major mineral component of calcifications and normal bone, over other calcium salts, in the present invention an incubation of equal quantity each of Ca-hydroxyapatite (HA), Ca-pyrophosphate (CPP), Ca-phosphate (CP), Ca-oxalate (CO), and Ca-carbonate (CC) salts with ^18FDG amino-Ad-Pam-Monomer in phosphate buffered saline (PBS) is performed. PET/CT images are acquired after incubation and washing of crystals, ^18FDG amino-Ad-Pam-Monomer has about 5-fold specificity for HA over other calcium salts found in the body and permits PET/CT detection of HA with high sensitivity. However, Na^18F, the Food and Drug Administration approved imaging agent for bone scintigraphy, permits about 1.5 fold specificity for HA over other calcium salts.
In a 96-well plate, 5 mg/mL of hydroxyapatite (HA) or the phosphate, oxalate, carbonate, and pyrophosphate salts of calcium are separately incubated with ^18FDG amino-Ad-Pam-Monomer (10 μCi) in 100 μL PBS for 20 min with continuous vortexing at RT. Crystals are washed 4 times with a 100-fold excess of PBS, centrifuged and mounted on PET/CT and 10 minute static scans are acquired. Similarly, calcium salt binding study is performed with Na^18F in a same condition.

## [18F-].[Na+] [Na^18F]
  specificity for HA over other calcium salts: about 1.5 fold
